“And” between values parts separate entries of the source, which are not always exact repeats. Identical values can stand only once.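 1) Cells in 96-well plates. 2) Compound, 48 h, 5 concentrations. 3) Linear interpolation between surrounding doses. 4) Unreached endpoint = highest concentration. TGI: total growth inhibition.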
What was measured:
Experiment in all cases: NCI-60 cell line screen, 48 h
OVCAR-5 ovarian = tested on: OVCAR-5 ovarian
IGROV1 ovarian = tested on: IGROV1 ovarian
MALME-3M melanoma = tested on: MALME-3M melanoma
A498 renal = tested on: A498 renal
OVCAR-3 ovarian = tested on: OVCAR-3 ovarian
786-0 renal = tested on: 786-0 renal
NCI-H23 lung = tested on: NCI-H23 lung
KM12 colon = tested on: KM12 colon
RPMI-8226 leukemia = tested on: RPMI-8226 leukemia
HL-60(TB) leukemia = tested on: HL-60(TB) leukemia

Row | SMILES | TGI (OVCAR-5 ovarian) | TGI (IGROV1 ovarian) | TGI (MALME-3M melanoma) | TGI (A498 renal) | TGI (OVCAR-3 ovarian) | TGI (786-0 renal) | TGI (NCI-H23 lung) | TGI (KM12 colon) | TGI (RPMI-8226 leukemia) | TGI (HL-60(TB) leukemia)
1 | Nc1ccc(S(=O)(=O)Nc2nccs2)cc1 | > 100 µM | > 100 µM | > 100 µM | > 100 µM | > 100 µM | > 100 µM | > 100 µM | > 100 µM | > 100 µM | > 100 µM
2 | CCOC(=O)NC(Nc1cccc(C(F)(F)F)c1)(C(F)(F)F)C(F)(F)F | > 100 µM | > 100 µM | > 100 µM | > 100 µM | > 100 µM | > 100 µM | > 100 µM | > 100 µM | > 100 µM | > 100 µM
3 | Cc1ccc2c(c1)C(=O)C1(C2)Cc2cccc(C)c2C1=O (stereo not given) | > 100 µM | > 100 µM | > 100 µM | > 100 µM | > 100 µM | > 100 µM | > 100 µM | > 100 µM | > 100 µM | > 100 µM
4 | C=C(Cl)C(C)(Cl)CCC(Br)C(C)(C)Cl (stereo not given) | 47.7 µM | 90.9 µM | 38.4 µM | > 100 µM | 32.4 µM | 31.3 µM | 50.7 µM | 42.9 µM | 50.6 µM | > 100 µM
5 | COC1C=COC2(C)Oc3c(C)c(O)c4c(O)c(c(C5SCCS5)c(O)c4c3C2=O)NC(=O)C(C)=C/C=C\C(C)C2OC(C)(C)OC(C2C)C(C)C(OC(C)=O)C1C (stereo not given) | > 100 µM | 30.7 µM | 36.5 µM | 29.3 µM | > 100 µM | 44 µM | 80.9 µM | > 100 µM | > 100 µM | 17.4 µM
6 | COc1ccc2cc(C(C)C(=O)N3CCOC3=O)ccc2c1 (stereo not given) | > 100 µM | > 100 µM | > 100 µM | > 100 µM | > 100 µM | > 100 µM | > 100 µM | > 100 µM | > 100 µM | > 100 µM
7 | CC(C)=CCNc1ncnc2c1ncn2CCC#N | > 100 µM | > 100 µM | > 100 µM | > 100 µM | > 100 µM | > 100 µM | > 100 µM | > 100 µM | > 100 µM | > 100 µM
8 | CSc1cnc2ccccc2c1SC1CN(Cc2ccccc2)c2ccccc2C1=O (stereo not given) | > 100 µM | > 100 µM | > 100 µM | > 100 µM | > 100 µM | > 100 µM | > 100 µM | > 100 µM | > 100 µM | > 100 µM
9 | Nc1nc(Cl)cc(NCC2(CO)CCCC2)n1 | > 100 µM | > 100 µM | > 100 µM | > 100 µM | > 100 µM | > 100 µM | > 100 µM | > 100 µM | > 100 µM | > 100 µM
10 | C=C1CN2CC(=C)CN(C1)CS(=O)(=O)N1CC(=C)CN(CC(=C)C1)S(=O)(=O)N1CC(=C)CN(CC(=C)C1)S(=O)(=O)C2 | > 100 µM | > 100 µM | 86.4 µM | > 100 µM | > 100 µM | 58.9 µM | > 100 µM | > 100 µM | > 100 µM | > 100 µM
11 | CN(C)CCOC1(Cc2ccc(F)cc2)CCC(C(C)(C)C)CC1 (stereo not given) | 21 µM and 20.5 µM | 23.8 µM and 24.3 µM | 7.95 µM and 10.6 µM | 26 µM and 29.3 µM | 23.2 µM and 28.1 µM | 15.9 µM and 11.7 µM | 27.5 µM and 24.8 µM | 19.3 µM and 18.1 µM | 5.09 µM and 7.79 µM | 13.1 µM
12 | O=C(O)/C=c1/c2ccccc2n2nc3ccccc3c12 | > 100 µM | > 100 µM | 96.2 µM | 46 µM | > 100 µM | > 100 µM | > 100 µM | 80.7 µM | 70.1 µM | 67.1 µM
13 | COc1ccc(NS(=O)(=O)c2ccc(NC(NC(=O)CC(C)C)(C(F)(F)F)C(F)(F)F)cc2)nn1 | > 100 µM | > 100 µM | > 100 µM | > 100 µM | > 100 µM | > 100 µM | > 100 µM | > 100 µM | > 100 µM | > 100 µM
14 | N#CC1=C(N)N(c2ccccc2)C(c2ccccc2)C1(C#N)C#N (stereo not given) | 37.3 µM | 32 µM | 35.6 µM | 33.6 µM | 34.6 µM | 32.6 µM | 44.8 µM | 30.9 µM | 37 µM | 43.9 µM
15 | CC(=O)OCC1OC(n2c3c(cc(C#N)c2=S)CCCCC3)C(OC(C)=O)C(OC(C)=O)C1OC(C)=O (stereo not given) | > 100 µM | > 100 µM | > 100 µM | > 100 µM | > 100 µM | > 100 µM | > 100 µM | > 100 µM | > 100 µM | > 100 µM
16 | CC(C)(Cl)C(Br)CCC(=CCCl)CBr (mixture of isomers) | 21.4 µM | 6.73 µM | 4.85 µM | 9.22 µM | 3.9 µM | 3.77 µM | 4.28 µM | 4.04 µM | 4.38 µM | 2.6 µM
17 | C#C[C@]1(O)CC[C@H]2[C@@H]3CCC4=C/C(=N/OC(=O)c5cccc6c(=O)c7ccccc7[nH]c56)CC[C@@H]4[C@H]3CC[C@@]21C | > 100 µM | > 100 µM | > 100 µM | > 100 µM | > 100 µM | > 100 µM | > 100 µM | > 100 µM | 54 µM | 39.8 µM

Reference: PubChem BioAssay (NCI)
